US20210078972A1, “QUINOLINE OR QUINAZOLINE COMPOUND AND APPLICATION THEREOF” (HAIHE BIOPHARMA CO., LTD., priority 2018, published 2021)

Tested on: MV4-11 cells
Assay: MV4-11 cell proliferation, CCK-8
Format: cell-based
Conditions: Homo sapiens, 72 h, read-out: IC50 of inhibition of proliferation of MV4-11 cells
Experimental: The inhibitory effects of the compounds on the proliferation of MV4-11 cells were detected by a CCK-8 cell counting kit (Dojindo). The specific steps are as follows: MV4-11 cells in the logarithmic phase were seeded into a 96-well culture plate at a suitable density for 90 μL per well. After overnight cultivation, the compounds at different concentrations were added to act for 72 hr, and a solvent control group was set (negative control). After 72 h of the compounds acting on the cells, the effects of the compounds on cell proliferation were detected using the CCK-8 cell counting kit (Dojindo). 10 μL of CCK-8 reagent was added to each well and the plate was placed in an incubator at 37° C. for 2-4 hours. After that, a full-wavelength microplate enzyme-labeling instrument SpectraMax 190 was used to read with a measurement wavelength of 450 nm.
The inhibition rate (%) of the compound on tumor cell growth was calculated by the following formula:
Inhibition rate (%)=(OD control well−OD administration well)/OD control well×100%
The IC50 values were obtained by regression with the four-parameter method using the software attached to the enzyme-labeling instrument.

Row | IC50 [nM] | Compound
1 | < 4 | CC(C)(C)c1cc(NC(=O)Nc2ccc(-c3cn4c(n3)sc3cc(OCCN5CCOCC5)ccc34)cc2)no1 [AC220, reference compound]

Molecular target: T1, AXL kinase (Homo sapiens, UniProt P30530)
T1 construct: purchased eurofins 14-500
T1 sequence (P30530 473-894 limits assumed): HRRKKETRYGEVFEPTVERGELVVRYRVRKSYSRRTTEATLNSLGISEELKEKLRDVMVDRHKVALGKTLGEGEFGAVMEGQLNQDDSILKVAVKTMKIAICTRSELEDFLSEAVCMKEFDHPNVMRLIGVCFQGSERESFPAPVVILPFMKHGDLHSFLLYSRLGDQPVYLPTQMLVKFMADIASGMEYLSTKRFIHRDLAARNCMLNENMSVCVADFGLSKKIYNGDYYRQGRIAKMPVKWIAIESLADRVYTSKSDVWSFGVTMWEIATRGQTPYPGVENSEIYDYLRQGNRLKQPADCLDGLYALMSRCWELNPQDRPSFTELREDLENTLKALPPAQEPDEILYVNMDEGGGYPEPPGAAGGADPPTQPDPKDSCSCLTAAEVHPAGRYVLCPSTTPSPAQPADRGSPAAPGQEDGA
Assay: AXL kinase inhibition, Z'-LYTE FRET
Format: biochemical
Conditions: ATP 50 μM
Text: Detection of the activity of kinase: the inhibitory activities of the compounds against AXL kinase (eurofins, 14-500) were detected through a second-order reaction by the Z′-LYTE™ technology (detected by fluorescence, enzyme-coupled form, based on the difference in a sensitivity of phosphorylated and non-phosphorylated polypeptides to proteolytic cleavage), based on the principle of fluorescence resonance energy transfer (FRET), using Z′-LYTE™ FRET peptide substrate (Z′-LYTE™ Tyrosine 6 Peptide Substrate, Invitrogen, PV4122).
Enzymatic reaction: To a 384-well plate was added 5 μL of enzyme-substrate system (50 mM HEPES, pH 6.5, 0.01% BRU-35, 10 mM MgC2, 1 mM EGTA, 0.02% NaNA), and 5 nL of a compound (concentration gradient) was transferred thereto using an echo520 ultramicro-liquid pipetting system. After the plate was shaken at room temperature for 10-20 min, 25 nL of ATP (a final concentration of 50 μM) was transferred thereto using the echo520 ultramicro-liquid pipetting system. After shaking and well mixing, the mixture was centrifuged and reacted at 30° C. in the dark for 1.5 h.
The data analysis method is as follows:
Phosphorylation ratio=1−{(emission ratio×F100%−C100%)/[C0%−C100%+emission ratio×(F100%−F0%)]}×100;
Inhibition rate=100×(1−compound phosphorylation ratio/negative control phosphorylation ratio).
The IC50 values were calculated by GraphPad Prism software.

Row | Compound | IC50 [nM]
2 | COc1cc2c(Oc3ccc(NC(=O)c4c(C)n(C)c5ccc(OC(F)(F)F)cc5c4=O)cc3F)ncnc2cc1OCCCN1CCCCC1 [TL-216, N-(3-fluoro-4-((6-methoxy-7-(3-(piperidin-1-yl)propoxy)quinazolin-4-yl)oxy)phenyl)-1,2-dimethyl-4-oxo-6-(trifluoromethoxy)-1,4-dihydroquinoline-3-carboxamide] | 1.5
3 | COc1cc2c(Oc3ccc(NC(=O)c4c(C)n(C)c5ccc(OC(F)(F)F)cc5c4=O)cc3F)ncnc2cc1OCCCN1CCN(C)CC1 [TL-238] | 1.2
4 | COCCCOc1cc2ncnc(Oc3ccc(NC(=O)c4c(C)n(C)c5ccc(OC(F)(F)F)cc5c4=O)cc3F)c2cc1OC [TL-226, N-(3-fluoro-4-((6-methoxy-7-(3-methoxypropoxy)quinazolin-4-yl)oxy)phenyl)-1,2-dimethyl-4-oxo-6-(trifluoromethoxy)-1,4-dihydroquinoline-3-carboxamide] | 4.7
5 | CCCOc1cc2ncnc(Oc3ccc(NC(=O)c4c(C)n(C)c5ccc(OC(F)(F)F)cc5c4=O)cc3F)c2cc1OC [TL-240, N-(3-fluoro-4-((6-methoxy-7-propoxyquinazolin-4-yl)oxy)phenyl)-1,2-dimethyl-4-oxo-6-(trifluoromethoxy)-1,4-dihydroquinoline-3-carboxamide] | 6.1

Other lines, results leading:

Row | IC50 [nM] | Compound
6 | 1.9 | COc1cc2c(Oc3ccc(NC(=O)c4c(C)n(C)c5ccc(OC(F)(F)F)cc5c4=O)cc3F)ncnc2cc1OCCN(C)C [TL-233, N-(4-((7-(2-(dimethylamino)ethoxy)-6-methoxyquinazolin-4-yl)oxy)-3-fluorophenyl)-1,2-dimethyl-4-oxo-6-(trifluoromethoxy)-1,4-dihydroquinoline-3-carboxamide]
7 | 59.4 | COc1cc2c(Oc3ccc(NC(=O)c4c(C)n(C)c5ccc(OC(F)(F)F)cc5c4=O)cc3F)ncnc2cc1OCCC(C)C [TL-230, N-(3-fluoro-4-((7-(isopentyloxy)-6-methoxyquinazolin-4-yl)oxy)phenyl)-1,2-dimethyl-4-oxo-6-(trifluoromethoxy)-1,4-dihydroquinoline-3-carboxamide]
